We go through 17 compounds from patent US20030118983A1, “Rapid screening procedure for inflammation mediators” (priority 2000, published 2003).

Data set [1] relates to PMNs. As to the kind of experiment: Propidium iodide staining of oxidant-treated PMNs (cell membrane integrity). The settings on record: oxidant levels ≧10^−7 M.
Data set [2] deals with PMNs. As to conditions: for decrease in DCFH oxidation: 10^−4 M oxidant; for increase in DCFH oxidation over control levels: 10^−5 M oxidant, 30 min.
The next data set has as its system lymphocytes. Kind of data set: HE effect on lymphocyte membrane integrity in mixed PMN/lymphocyte preparation (propidium iodide).
Data set [3] can be described thus: Organochlorine insecticide levels in serum of burn patients. The class given is in vivo, human. As to conditions: for mean peak serum levels: nonsurviving burn patients; for mean peak serum levels / mean peak serum levels higher than in surviving patients: PBD5; for mean peak serum levels higher than in surviving patients: nonsurviving patients. How it is done:
Patients and Subjects. Analyses of xenoestrogens in archived serum were performed on samples from seven nonsurviving males and seven age- and burn-size matched surviving male burn patients admitted between 1991 and 1994 to the United States Army Institute of Surgical Research burn care facility. The criteria for selection of subjects were age (approximately 40-70 years), total burn surface area (≧25%), postburn survival (≧7 days) and lack of preburn disease. Inhalation injury was present in 6 of 7 surviving and 5 of 7 nonsurviving patients. In the non-surviving group, two patients died between postburn day (PBD) 7 and 11. Age-matched healthy males (n=12) were used as control subjects.
Levels of insecticides in serum of burn patients on postburn day (PBD) 1, 3, 5, 7, and 11 were determined in accordance with a previously reported method25. This method used a Dynamic Thermal Stripper (Environchem, Kemblesville, Pa.) to sparge insecticides from 50 μl of serum. The insecticides were collected on Tenax solid sorbent and subsequently thermally desorbed with a Unacon 810 (Environchem, Kemblesville, Pa.) into a HP 5890 gas chromatograph (Hewlett Packard, Palo Alto, Calif.) equipped with a SPB-608 30 M, fused silica capillary column (J & W Scientific, Folsom, Calif.) and an electron capture detector. Levels of insecticides in serum stored at −75° C. were determined by comparing responses to standard curves constructed from certified standards (Ultra Scientific, Kingstown, R.I.) spiked into a composite sample consisting of serum from 3 subjects, previously determined to have low levels of each insecticide. For consistency, each patient's samples were analyzed during the same day by postburn day (PBD 1, 3, 7, and 11). The detection limit for HE and OC was 76 and 56 pg/mL, respectively. A reference serum sample pooled from 3 patients having medium levels of each insecticide was measured 1-2 times during each day of analyses. […] Serum cholesterol and triglyceride concentrations were determined using Instrumentation Laboratory reagents and analyzed on a Monarch Clinical Chemistry System (Instrumentation Laboratories, Inc., Lexington, Mass.).

In the next data set the test system is MNCs. Kind of data set: Intracellular oxidants (DCF) in MNCs activated with cytokine cocktail and hemoglobin. The data set is classed as cell-based, human. As to conditions: for dampening effect on oxidant production: cytokine and hemoglobin activation, 10 μM steroid. Here is the method:
(§1) PMNs and MNCs were harvested from blood via centrifugation with equal volumes of Polymorphprep, GIBCO (Grand Island, N.Y.) at 550×g for 35 minutes at 20° C. […] Replicate experiments were conducted with three to five donors from a pool of six consented male adults.
(§2) PMNs (10,000,000/ml) and MNCs (20,000,000/ml) were loaded with 2,7-dichlorodihydrofluorescein-diacetate (DCFH-DA) (2 μM) (Molecular Probes; Eugene Oreg.) in HBSS for 30 minutes at 37° C. in a water bath. Non fluorescent DCFH is oxidized to fluorescent DCF by a variety of oxidants. The approach is sensitive, reproducible, and capable of measuring wide concentration range of intracellular oxidants. […] Treated PMNs or MNCs were incubated for 1 or 5 h in HBSS amended with physiological concentrations of Ca^2+ (1.5 mM), Mg^2+ (900 μM), glutamine (1.0 mM); GIBCO; Grand Island, N.Y.), arginine (100 μM), amino acids (1×MEM)(GIBCO; Grand Island, N.Y.), and tetrahydrobiopterin (1.0 μM). Flow cytometric analyses were performed with an argon laser (488 nm) and emission light measured behind a filter transmitting 530/30 nm light on a FACCalibur, Becton Dickinson (San Jose, Calif.) with CELLQuest data acquisition and analysis software. PMNs or MNCs were gated by forward- and side-scatter. For each sample, 10,000 PMNs or MNCs were collected.
(§3) Statistical Analyses Intracellular oxidants in activated MNCs or PMNs treated with the three highest steroid concentrations or the L-NMMA treatment were compared to untreated activated MNCs or PMNs by Bonferroni corrected t-test.

Data set [4] concerns PMNs. As to the kind of experiment: Intracellular oxidants (DCF) in PMNs activated with cytokine cocktail and hemoglobin. The class given is cell-based, human. As to conditions: for effect on oxidants in PMNs: cytokine and hemoglobin activated PMNs. Here is the method:
as §1, §2, §3

The subject of data set [5] is PMNs. Kind of data set: Heme protein effect on DCFH oxidation in unstimulated, LPS and TNFα-, and PMA-stimulated PMNs, with or without NOS inhibitors, SOD or antioxidants. The class given is cell-based, human. As to conditions: PMA-stimulated PMNs with arginine. Here is the method: DCFH-loaded PMNs were incubated with and without N-methyl-L-arginine (L-NMMA; 5 mM; Calbiochem, San Diego, Calif.) and heme proteins (0.3-1000 μg/mL) at 37 ° C. for 10 minutes. […] In unstimulated and LPS and TNFα -stimulated PMNs, the treatments were oxyMb, or oxyMb+L-NMMA (5 mM). […] RBC cell membranes were ruptured using a micro-ultrasonic cell disrupter, Kontes, Janke and Kukel Gmbh and CO. (Stauten, Germany). […] OxyMb was prepared by mixing excess sodium dithionite with Mb for 1 h and inorganic sulfur compounds were removed by dialyzing in HBSS buffer for 3 h. Percent iron in the ferric state in non-dithionite treated oxyMb or oxyHb was not assessed. […] […] cross-linked Hb was a gift from Walter Reed Army Institute of Research. […] Also, various concentrations of bovine liver Cu, Zn SOD (30-10,000 U/mL; 8-2640 μg/mL) and 30 μg/mL oxyMb were incubated with PMA-stimulated PMNs pretreated with and without L-NMMA. Flow cytometric measurements of oxidant-induced DCF fluorescence were performed as described above.

Data set [6] relates to PMNs. Kind of data set: HE-induced DNA strand breaks in PMNs (dUTP nick end labeling). The settings on record: for effect on HE-induced DNA strand breaks: at HE-induced peak values (3-6 nM). The data set is classed as cell-based, human. How it is done:
HE-induced DNA strand breaks in PMNs were measured by flow cytometry using the tdt-mediated dUTP nick end labeling assay, In Situ Cell Death Detection Kit (Boehringer Mannheim, Indianapolis, Ind.) according to manufacturer's instructions. PMNs were incubated with L-NMMA, 17β-E2 receptor antagonists, TNFα, and varying concentrations of HE as described in the above HE-induced DCFH oxidation experiments with the exception that HE incubation time was 2 h instead of 40 min.
In Vitro measurements of oxidant production and cellular damage.

The test system of data set [7] is PMNs. As to the kind of experiment: HE and 17β-E2 effects on intracellular oxidants (NO) in PMNs, DCFH oxidation. The class given is cell-based, human. As to conditions: for effect on HE-induced intracellular oxidants (NO): ICI 182,780 0.1 nM.
Procedure: HE effects on intracellular levels of oxidants in PMNs were measured using a previously reported cytofluorometric procedure.
(§4) The purity of PMNs and lymphocytes was greater than 88% and 95%, respectively, and their viability, as determined by trypan blue-exclusion, was greater than 90%.
The subject of data set [8] is PMNs. Kind of data set: Heme protein effect on DCFH oxidation in unstimulated, LPS and TNFα-, and PMA-stimulated PMNs, with or without NOS inhibitors, SOD or antioxidants. The data set is classed as cell-based, human. As to conditions: PMA-stimulated PMNs; L-NMMA 5 mM, L-NIO 5 mM, glutathione 25 μM and ascorbate 25 μM, human SOD 300 U/mL.
Setting [9] is: TNFα 10 ng/mL added to HE-treated PMNs.

Where “and” joins values, the source holds several entries; their conditions need not be identical. Equal values may be shown once.

Procedure for lymphocytes: HE effects on surrounding lymphocyte membrane integrity mediated by PMN-derived NO were determined by cytofluorometric measurements of intracellular propidium iodide levels in a mixed PMN/lymphocyte preparation using 100,000 lymphocytes and PMN/lymphocyte ratios of 0/1, 2/1, 4/1, 10/1). For comparison some aliquots of PMNs were loaded with L-NMMA (5 mM) or 2-(4-carboxyphenyl)-4,4,5,5-tetramethyl imidazoline-1-oxyl-3-oxide (carboxy-PTIO) (5 mM) (Calbiochem, La Jolla, Calif.), a NO scavenger, prior to incubating leukocytes with HE (1 nM) for 40 min.
as §4

Regarding `OO` [H2O2, hydrogen peroxide], the “PMNs staining positive for propidium iodide” value with PMNs [1] is recorded as 87%. Besides, in the data set with PMNs [2], the “decrease in DCFH oxidation” value is “approximately 25%” and the “increase in DCFH oxidation over control levels” value came out at 25 fold.
Take `CC1(C)N([O])C(c2ccc(C(=O)O)cc2)=[N+]([O-])C1(C)C` [PTIO, 2-(4-carboxyphenyl)-4,4,5,5-tetramethyl imidazoline-1-oxyl-3-oxide, reference compound]: in the data set with lymphocytes (co-incubation with HE 1 nM), the “effect on HE-induced cell membrane damage in lymphocytes” value was “attenuated the HE-induced cell membrane damage in the lymphocytes”.
Take `ClC1=C(Cl)[C@]2(Cl)[C@H]3[C@H]([C@H](Cl)[C@]4(Cl)O[C@H]34)[C@@]1(Cl)C2(Cl)Cl` [OC]: in data set [3], the “mean peak serum levels” value is 677 pg/ml and 1.59 nM; the “mean peak serum levels higher than in surviving patients” value is “approximately 90%”.
On to `CC(=O)[C@H]1CC[C@H]2[C@@H]3CCC4=CC(=O)CC[C@]4(C)[C@H]3CC[C@]12C` [P4, progesterone], for which the “dampening effect on oxidant production” value in the data set on MNCs (MNCs, after 1 h) came out at 0%. Moreover, the “effect on oxidants in PMNs” value in the data set on PMNs [4] was “no effect on oxidants”.
As for `O.O.O.O.[Cl][Fe][Cl]` [FeCl2.4H2O, reference compound], in the data set with PMNs [5], the “effect on DCFH oxidation” value was “produced a decrease in DCFH oxidation above 30 μg/mL”.
TNFα: in the data set with PMNs [6] (TNFα added to HE), the “increase in amplitude of HE DNA strand break Gaussian curve” value was found to be 445% and the “left shift of HE DNA strand break Gaussian curve” value was 10 fold. For the same compound, in the data set with PMNs [7] (setting [9]), the “increase in amplitude of HE intracellular oxidant Gaussian curve” value stood at 60% and the “left shift of HE intracellular oxidant Gaussian curve” value is listed as 10 fold.
In the case of “human erythrocyte Cu, Zn SOD: superoxide scavenger, superoxide dismutase from human erythrocytes”, the “effect on oxyMb-induced DCFH oxidation” value with PMNs [8] is recorded as “increased oxyMb induced-DCFH oxidation”.
With oxyhemoglobin [oxyHb], the “less efficient than oxyMb in inducing DCFH oxidation” value in the data set with PMNs [5] is recorded as 20-40%.
For the compound `ClC(Cl)=C(c1ccc(Cl)cc1)c1ccc(Cl)cc1` [DDE], in [3] (nonsurvivors, by PBD 11), the “increase of mean serum level” value is recorded as 2.5 times; the mean serum level is 3667 pg/mL and 183 nM.
For the compound `C[C@]12CC[C@@H]3c4ccc(O)cc4CC[C@H]3[C@@H]1CC[C@@H]2O` [17β-E2, 17β-estradiol], the “dampening effect on oxidant production” value with MNCs (MNCs, after 1 h) is recorded as 65%. In addition, the “effect on oxidants in PMNs” value with PMNs [4] is “no effect on oxidants”.
For the compound `CC/C(=C(\c1ccccc1)c1ccc(OCCN(C)C)cc1)c1ccccc1` [tamoxifen, reference compound], the “effect on HE-induced DNA strand breaks” value with PMNs [6] is “nonsignificant trend for attenuating HE-induced DNA strand breaks”. Also, in the data set on PMNs [7] (L-NMMA 5 mM, tamoxifen 200 nM), the “effect on 17β-E2-induced intracellular oxidants (NO)” value is “completely inhibited the 17β-E2-induced NO levels” and the “effect on HE-induced intracellular oxidants (NO)” value is given as “completely eliminated the HE-induced increase in NO”.
With `CCN(CC)/[N+]([O-])=N/O.CCNCC` [DEANO, diethylamine nitric oxide], in the data set on PMNs [1], the “PMNs staining positive for propidium iodide” value was found to be 87%. In the data set on PMNs [2], the “decrease in DCFH oxidation” value is given as “approximately 25%” and the “increase in DCFH oxidation over control levels” value was 25 fold.
Regarding “hemoglobin: human hemoglobin (100 μg/mL)”, the “increase of mean oxidized DCF over unstimulated background” value stood at 41% in the data set on MNCs (MNCs, after 1 h, data not shown) and 172% in the data set on PMNs [4] (PMNs, after 1 h, data not shown). Besides, the “increase of mean intracellular oxidized DCF over unstimulated background” value in the data set with MNCs (MNCs, after 5 h) is 259%; in the data set with PMNs [4] (PMNs, after 5 h), 197%.
For `CC(=N)NCCCC[C@H](N)C(=O)O` [L-NIL, L-N^6-(-1-Iminoethyl)lysine], the “effect on oxidants in activated MNCs” value in the data set with MNCs (L-NIL 10 μM) was “negligible effects on activated MNCs and PMNs”. Besides, in the data set with PMNs [4] (L-NIL 10 μM), the “effect on oxidants in activated PMNs” value was “negligible effects on activated MNCs and PMNs”.
As to `ClC1=C(Cl)C2(Cl)C3C4OC4C(Cl)C3C1(Cl)C2(Cl)Cl` (stereo not drawn) [HE], in the data set on lymphocytes (HE 1 nM, PMN/lymphocyte ratios above 2), the “effect on cell membrane damage in lymphocytes” value is on record as “increased cell membrane damage in the lymphocytes”. Further, in data set [3], the “mean peak serum levels” value is 215 pg/ml and 0.55 nM; the “mean peak serum levels higher than in surviving patients” value is given as “approximately 90%”. Moreover, the “HE concentration of peak response of DNA strand breaks, Gaussian curve” value in the data set with PMNs [6] (2 h incubation) is on record as “approximately 5 nM”. The “HE concentration of peak response of DNA strand breaks, with TNFα” value in the data set on PMNs [6] (co-incubation with TNFα) was “approximately 0.3 nM”. Moreover, in the data set on PMNs [7] (co-incubation with TNFα 10 ng/mL), the “HE concentration of peak response of intracellular oxidants, with TNFα” value is recorded as “approximately 0.1 nM”.
On to `C[C@]12CC[C@@H]3c4ccc(O)cc4C[C@@H](CCCCCCCCC[S+]([O-])CCCC(F)(F)C(F)(F)F)[C@H]3[C@@H]1CC[C@@H]2O` (stereo partly drawn) [ICI 182,780, reference compound], for which the “effect on HE-induced DNA strand breaks” value in the data set with PMNs [6] was “nonsignificant trend for attenuating HE-induced DNA strand breaks”. In addition, the “effect on HE-induced intracellular oxidants (NO)” value in the data set on PMNs [7] (L-NMMA 5 mM, tamoxifen 200 nM) was “completely eliminated the HE-induced increase in NO”.
As to `C[C@]12CCC(=O)C=C1CC[C@@H]1[C@@H]2[C@@H](O)C[C@@]2(C)[C@H]1CC[C@]2(O)C(=O)CO` [cortisol], the “time dependence of oxidant reduction in MNCs” value in the data set with MNCs (5 h versus 1 h of stimulation) is given as “reduced oxidant levels in MNCs to a greater extent after 5 h as compared to 1 h of stimulation”. Moreover, the “dampening effect on oxidant production” value in the data set with MNCs (MNCs, after 1 h) came to 20%. The “effect on oxidants in PMNs” value in the data set on PMNs [4] was “modest trend for reducing oxidant levels after 5 h”.
